Measurements taken from patent publication US10725055B1, “Compounds for carbonyl sulfide/carbon disulfide/hydrogen sulfide release and methods of making and using the same” (University of Oregon, priority 2016, dated 2020).
Entries after “also recorded” stand apart in the source; their conditions may differ. Read-outs that look alike come from different tables or passages of the source.

Key:
BEAS 2B cells [1] = assay: Bioenergetic analysis in cultured cells (XF24 Extracellular Flux Analyzer); format: cell-based, human; conditions: for inhibition of cellular bioenergetics: same conditions, 1, 3, 10 μM; for ATP synthesis / maximal respiration / oxygen consumption linked with basal respiration: 1, 3, 10 μM, 24 hours
Source text: Cells were then washed with PBS.

BEAS 2B cells [2] = conditions: for LDH levels: 10 μM, 24 hours
Procedure: Lactate dehydrogenase (LDH) release was determined as a cytotoxicity assay, a measurement of necrotic cell death, as described previously. Briefly, 30 μL of supernatant was saved before addition of MTT and mixed with 100 μL of freshly prepared LDH assay reagent to reach final concentrations of 85 mM lactic acid, 1040 mM nicotinamide adenine dinucleotide (NAD+), 224 mM N-methylphenazonium methyl sulfate (PMS), 528 mM 2-(4-lodophenyl)-3-(4-nitrophenyl)-5-phenyl-2H-tetrazolium chloride (INT) and 200 mM Tris (pH 8.2). The changes in absorbance were read kinetically at 492 nm for 15 min (kinetic LDH assay) on a monochromator-based reader (Powerwave HT, Biotek) at 37° C. LDH activity values are shown as Vmax for the kinetic assays in mOD/min.

BEAS 2B cells [3] = system: BEAS 2B cells
[4] = molecular target: CA from bovine erythrocytes (Bos taurus, UniProt P00921); format: biochemical
CA from bovine erythrocytes, sequence (P00921 whole entry): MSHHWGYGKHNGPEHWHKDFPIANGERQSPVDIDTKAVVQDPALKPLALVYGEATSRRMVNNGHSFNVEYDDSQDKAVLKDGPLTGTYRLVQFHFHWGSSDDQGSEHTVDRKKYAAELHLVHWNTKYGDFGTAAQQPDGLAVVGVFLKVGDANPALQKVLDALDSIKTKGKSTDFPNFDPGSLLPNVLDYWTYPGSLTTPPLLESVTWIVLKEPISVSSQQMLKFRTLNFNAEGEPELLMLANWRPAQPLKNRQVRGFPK

[5] = Fluorescence response of MeRho-TCA to NaSH and other RSONs
HeLa cells [6] = assay: Cytoprotection against H2O2-induced oxidative stress, CCK-8; format: cell-based; conditions: H2O2 100 μM, compound 10-50 μM, 1 hour
HeLa cells [7] = assay: Cytotoxicity in HeLa cells, CCK-8; conditions: 10-100 μM, 2 hour incubation
[8] = H2O2-triggered H2S release from PeroxyTCM/TCM compounds, H2S electrode; conditions: for H2S release efficiency: 50 μM compound; for H2S release upon treatment with H2O2: PBS pH 7.4, CA 25 μg/mL
RAW 264.7 cells = conditions: 50 μM compound
[9] = not given; remark: listed apart in the source
HeLa cells [10] = conditions: 50 μM compound
[11] = H2S release from photo-triggerable compounds under UV light, methylene blue (MB) assay; conditions: for peaking time for H2S release: 50 μM, LED UV light 365 nm, PBS pH 7.4, CA 25 μg/mL
[12] = NMR monitoring of self-immolation after TCEP reduction; format: physicochemical; conditions: 1H, 13C{1H}, 19F NMR
Source text: In some embodiments, an azide in the para position of the benzylthiocarbamate was used to function as the H2S-responsive “trigger” for self-immolation and COS release. To facilitate NMR identification of the products, azidobenzylthiocarbamate (donor compound 1 of FIG. 2) was made with a p-fluoroaniline payload, and the corresponding carbamate (donor compound 2 of FIG. 2) as a control donor compound. Although donor compound 2 should undergo the same self-immolative decomposition upon azide reduction, it will release CO2 rather than COS, and thus should not result in H2S donation upon reaction with CA. […] The disappearance of the benzylic peak, loss of the thiocarbonyl carbon peak, and formation of new resonances upon self-immolation by NMR spectroscopy (FIGS. 3A-3C) confirmed that self-immolation occurs. All such changes were observed within 5 minutes of TCEP addition, confirming the rapid self-immolation of the scaffold upon reduction, and were consistent with COS release from the thiocarbamate scaffold upon azide reduction.

[13] = H2S release from azidobenzyl thiocarbamate/carbamate after TCEP reduction in presence of CA, H2S electrode; conditions: buffer containing CA; for H2S release upon injection of TCEP: TCEP added
[14] = Total sulfide in whole mouse blood, monobromobimane (mBB) method; conditions: 25 μM compound, 30 minutes incubation with excess TCEP
[15] = system: porcine liver esterase (PLE); assay: Esterase (PLE)-triggered H2S release, H2S-selective electrode
[16] = absence of esterase
[17] = system: porcine liver esterase (PLE); assay: H2S release from 5 detected with H2S-responsive fluorescent probe MeRho-Az; conditions: 50 μM compound, 5 μM MeRho-Az, CA, 1 U/mL PLE
BEAS 2B cells [18] = system: BEAS 2B cells; remark: listed apart in the source
[19] = at concentrations lower than 30 μM
[20] = COS gas in 10 mM PBS, pH 7.4, no CA

With O=C(CCCCCCCCC[P+](c1ccccc1)(c1ccccc1)c1ccccc1)Oc1ccc(-c2cc(=S)ss2)cc1.[Br-] [AP39, reference compound] the “inhibition of cellular bioenergetics” value (BEAS 2B cells [1]) was “No significant inhibition of cellular bioenergetics”, the “cytotoxicity, LDH assay” value (BEAS 2B cells [2]; at 30 μM) was “minimal cytotoxicity” and the “cytotoxicity, LDH assay” value (BEAS 2B cells [2]; [19]) was “none”. For the same molecule, the “cytotoxicity, MTT assay” value (BEAS 2B cells [3]; at 30 μM) was “minimal cytotoxicity” and the “cytotoxicity, MTT assay” value (BEAS 2B cells [3]; [19]) was “none”.
For O=C=S [COS, carbonyl sulfide], the “H2S from COS after H2O2 addition” value [20] was “rapid H2S generation”, the “H2S from COS prior to H2O2 addition” value [20] was “No H2S was detected” and the “H2S production from COS” value ([4]; COS gas in deoxygenated PBS, 1 mM CTAB, pH 7.4, with CA) was “rapid H25 production”. The “H2S formation from COS” value ([4]; buffer in the absence of CA) was “negligible current; also recorded: minimal H2S formation”.
In the case of C1COCCN1.COc1ccc(P(=S)(S)N2CCOCC2)cc1 (stereo not shown) [GYY4137, reference compound], the “inhibition of cellular bioenergetics” value (BEAS 2B cells [1]) is reported as “No significant inhibition of cellular bioenergetics”, the “cytotoxicity, LDH assay, compared to DMSO vehicle” value (BEAS 2B cells [2]; up to 30 μM) is reported as “no significant cytotoxicity” and the “cytotoxicity, MTT assay, compared to DMSO vehicle” value (BEAS 2B cells [3]; up to 30 μM) is reported as “no significant cytotoxicity”.
In the case of [N-]=[N+]=Nc1ccc(COC(=S)Nc2ccc3c(c2)Oc2ccccc2C32OC(=O)c3ccccc32)cc1 (stereo not shown) [MeRho-TCA, O-(4-Azidobenzyl)-N-methylrhodolthiocarbamate], the fluorescence turn-on ([5]; 50 equivalents of NaSH, PBS, 1 mM CTAB, pH 7.4, over 90 minutes) is reported as 65 fold and the “selectivity of fluorescence response” value ([5]; vs Cys, GSH, Hcy, S2O3 2-, SO3 2-, SO4 2-, H2O2, NO) is reported as “excellent selectivity for H2S over other RSONs”.
With CC1(C)OB(c2ccc(COC(=O)Nc3ccc(F)cc3)cc2)OC1(C)C [PeroxyCM-1] the “cell viability / protection against H2O2-mediated oxidative stress” value (from here on “cell viability / protection”) (HeLa cells [6]) was “attenuated rescue from oxidative stress” and the “cell viability (cytotoxicity)” value (HeLa cells [7]) was “No significant decrease in cell viability”.
For CC1(C)OB(c2ccc(COC(=S)Nc3ccc(F)cc3)cc2)OC1(C)C [PeroxyTCM-1], the “H2S release with H2O2 in the absence of CA” value (H2O2 10 equiv, no CA) was “positive H2S release response”, the “cell viability / protection” value (HeLa cells [6]) was “significant dose-dependent increase of cell viability” and the H2S release efficiency ([8]; 250 μM H2O2) was 80%. For the same molecule, the H2S release efficiency ([8]; 500 μM H2O2) was 60%, the “HSN2 signal after addition of PMA” value (RAW 264.7 cells; 500 nM PMA) was “significant increase in signal from HSN2” and the “HSN2 signal in the absence of PMA” value (RAW 264.7 cells; HSN2 5 μM) was “no fluorescent signal from HSN2”. For the same molecule, the “H2S release after incubation with H2O2, O2−, or ONOO−” value ([9]; 50 μM compound, RSONS 500 μM, CA 25 μg/mL, 20 min) was “resulted in H2S release”, the “H2S release after incubation with other RSONS” value ([9]; ClO−, HO, 1O2, TBHP, tBuO, Cys, GSH, GSSG, GSNO, NO2, SO4 2−, S2O3 2−, NO, HNO) was “failed to release H2S” and the “cell viability (cytotoxicity)” value (HeLa cells [7]) was “No significant decrease in cell viability”. The “HSN2 fluorescence after addition of H2O2” value (HeLa cells [10]; H2O2 25 μM or 50 μM) was “H2O2 dose-dependent increase in HSN2 fluorescence” and the “HSN2 fluorescence in the absence of H2O2” value (HeLa cells [10]; HSN2 5 μM) was “no HSN2 fluorescence was observed”.
For O=C(Nc1ccc(F)cc1)OCc1ccccc1[N+](=O)[O-] [PhotoCM-1], the “H2S release upon UV irradiation with CA” value ([11]; UV 10 min, CA 25 μg/mL) was “no H2S release was observed”.
For O=[N+]([O-])c1ccccc1COC(=S)Nc1ccc(F)cc1 [PhotoTCM-1], the “peaking time for H2S release” value [11] was ~10 min, the “H2S generation in the absence of UV irradiation” value ([11]; PBS pH 7.4, no UV) was “did not generate H2S” and the “H2S release upon UV irradiation with CA” value ([11]; UV 10 min, CA 25 μg/mL) was “significant enhancement of H2S concentration”. The “H2S upon UV irradiation in the absence of CA” value ([11]; UV 10 min, no CA) was “low levels of H2S”, the “H2S upon UV irradiation with CA and acetazolamide (AAA)” value ([11]; UV, CA 25 μg/mL, AAA 10 μM) was “significantly reduced” and the “H2S generation with cellular nucleophiles” value ([11]; cysteine, homocysteine, GSH, GSSG, serine, lysine, in the presence of CA) was “does not generate H2S”.
For COc1cc(COC(=S)Nc2ccc(F)cc2)c([N+](=O)[O-])cc1OC [PhotoTCM-2], the “peaking time for H2S release” value [11] was ~10 min.
With Fc1ccc(NC(=S)OCc2ccccc2)cc1 [TCM-1] the “cell viability / protection” value (HeLa cells [6]) was “no protection”, the “H2S release upon treatment with H2O2” value [8] was “did not release H2S” and the “cell viability (cytotoxicity)” value (HeLa cells [7]) was “No significant decrease in cell viability”. The “H2S release upon UV irradiation with CA” value ([11]; UV 10 min, CA 25 μg/mL) was “did not release H2S”.
In the case of Cc1ccc(NC(=S)OCc2ccccc2)cc1 [TCM-2], the “H2S release upon treatment with H2O2” value [8] is reported as “did not release H2S”.
In the case of [N-]=[N+]=Nc1ccc(COC(=S)Nc2ccc(F)cc2)cc1 [compound 1, O-(4-Azidobenzyl)-N-(4-fluorophenyl)thiocarbamate], the “time to NMR changes showing self-immolation after TCEP addition” value [12] is reported as ≤ 5 min, the “H2S release upon injection of TCEP” value [13] is reported as “rapid release of H2S” and the “H2S formation before TCEP” value ([13]; no TCEP) is reported as “did not result in H2S formation; also recorded: no H2S is formed”.
In the case of [N-]=[N+]=Nc1ccc(COC(=O)Nc2ccc(F)cc2)cc1 [compound 2, O-(4-Azidobenzyl)-N-(4-fluorophenyl)carbamate], the “H2S release upon injection of TCEP” value [13] is reported as “no H2S was produced”.
With Cc1ccc(NC(=S)OCc2ccccc2)cc1 [compound 3, O-(4-Benzyl)-N-tolylthiocarbamate] the “total sulfide levels in blood” value [14] was “Only samples containing donor 4 with the azide trigger increased total sulfide levels”.
For Cc1ccc(NC(=S)OCc2ccc(N=[N+]=[N-])cc2)cc1 [compound 4], the “total sulfide levels in blood” value [14] was “increased total sulfide levels in blood”.
With Cc1ccc(NC(=S)OCc2ccc(OC(=O)C(C)(C)C)cc2)cc1 [compound 5] the ATP synthesis (BEAS 2B cells [1]) was “negatively affected”, the maximal respiration (BEAS 2B cells [1]) was “negatively affected” and the “oxygen consumption linked with basal respiration” value (from here on “oxygen consumption linked”) (BEAS 2B cells [1]) was “negatively affected”. For the same molecule, the “H2S release with PLE” value ([15]; 1 U/mL PLE in the presence of CA) was “immediate H2S release”, the “H2S release with increased PLE” value ([15]; 20 U/mL PLE, otherwise identical conditions) was “significantly faster H2S release” and the “rate of H2S production with acetazolamide (AAA)” value ([15]; PLE, CA, CA inhibitor AAA) was “significantly reduced the rate of H2S production”. The “H2S generation without esterase” value ([15]; pH 7.4 PBS, CA 25 μg/mL, no PLE) was “did not result in H2S generation”, the LDH levels (BEAS 2B cells [2]) was “increase in LDH levels” and the “stability in aqueous solution” value [16] was “stable”. The “fluorescence response of MeRho-Az” value [17] was “fluorescence turn-on consistent with H2S release” and the “cytotoxicity during live cell imaging” value (BEAS 2B cells [18]) was “high cytotoxicity”.
With Cc1ccc(NC(=O)OCc2ccc(OC(=O)C(C)(C)C)cc2)cc1 [compound 6] the ATP synthesis (BEAS 2B cells [1]) was “increases”, the maximal respiration (BEAS 2B cells [1]) was “did not negatively impact” and the “oxygen consumption linked” value (BEAS 2B cells [1]) was “increases”. The LDH levels (BEAS 2B cells [2]) was “not observed”.
In the case of NC(=S)OCc1ccccc1 [compound 7], the ATP synthesis (BEAS 2B cells [1]) is reported as “no effect”, the maximal respiration (BEAS 2B cells [1]) is reported as “only slightly decreased maximal respiration at 10 μM” and the “oxygen consumption linked” value (BEAS 2B cells [1]) is reported as “no effect”. The “direct cleavage of benzyl thiocarbamate moiety by PLE” value ([15]; control lacking the ester trigger) was “not cleaved directly by PLE”, the LDH levels (BEAS 2B cells [2]) was “not observed” and the “cell viability (MTT reduction)” value (BEAS 2B cells [3]; 10 μM, 24 hours) was “not observed”.
